Assay results taken from paper PMC6944674, “Comparison of the Hepatotoxic Potential of Two Treatments for Autosomal-Dominant Polycystic Kidney DiseaseUsing Quantitative Systems Toxicology Modeling” (Pharmaceutical Research, 2020).

How the values were obtained:
human BSEP = molecular target: T1, human BSEP (Homo sapiens, UniProt O95342); test: BSEP vesicular transport inhibition assay (taurocholate, HEK-293 cell membrane vesicles); assay type: biochemical
T1 construct: host or cells: HEK-293 cell membrane vesicles
Protocol: The functional impact of lixivaptan, its three metabolites and tolvaptan on the human ABC (efflux) transporters BSEP and MRP3 and MRP4 was assessed for this project using in vitro vesicular transport inhibition assays. The inhibition of the human SLC (uptake) transporter NTCP was assessed using CHO cells stably expressing human NTCP. The concentration ranges used for the five test articles was determined based on the solubility of each compound in the assay solution. All transporter inhibition assays were conducted in triplicate by Solvo Biotechnology (Szeged, Hungary).
For the simulation of bile acid transporter inhibition by lixivaptan in DILIsym, parameter values were selected for BSEP canalicular transport, basolateral transport (encompassing both MRP3 and MRP4), and NTCP transport. The parameter values for each include the inhibition constant, defined as the IC50 or Ki value, and the inhibition type, defined as competitive, non-competitive, or mixed inhibition.
In vesicular transport inhibition assays, lixivaptan and its metabolites each inhibited BSEP-mediated probe substrate accumulation (Figure B1) and MRP4-mediated probe substrate accumulation (Figure B2) dose-dependently.
Figure B1. […] See Appendix A for more details.

HepG2 cells [1] = test: Seahorse XFe96 cellular respiration assay (oxygen consumption rate); assay type: cell-based; details: 24 hour incubation
Protocol: To assess the potential effect of the five test articles on mitochondrial function, cellular respiration assays using a Seahorse XFe96 Flux Analyzer were conducted by Cyprotex (Macclesfield, UK) and overseen by the authors. HepG2 cells were incubated with each test article for 1 or 24 hours and tested for an effect on cellular respiration by measuring the oxygen consumption rate (OCR). Each study was conducted in triplicate. Importantly, the 1 hour culture was conducted in the absence of serum (i.e. no serum protein binding) as is standard for the Seahorse Analyzer assay conditions.

[2] = Intracellular concentration by LC/MS/MS in HepG2 cultures parallel to Seahorse assay; assay type: in vitro ADME; details: human, HepG2 cells, Seahorse medium
Protocol: (§1) The concentration of test compound at the site of action (i.e. hepatocytes) has been identified as highly influential in the selection of parameter values (7). To assess intracellular concentrations of the five test articles, identical HepG2 cultures were established in parallel and cell lysate concentrations of the test articles were measured by LC/MS/MS analysis. Intracellular concentrations of the test articles were calculated by correcting for cell lysate volume (100 µL) and the volume of HepG2 cells in each well, which was calculated by multiplying cell count per well by cellular volume per cell (2.85 pl/cell). One independent study in duplicate was conducted to assess intracellular concentrations of the test articles for Seahorse studies.

HepG2 cells [3] = test: as above; assay type: in vitro ADME; details: Seahorse medium; for CIntracellular Fraction: cell lysate; for CHepatocyte: corrected for lysate and HepG2 cell volume
Protocol: as §1

[4] = parameters: method as in proprietary data not shown; details: ref proprietary data not shown, cited from earlier work
[5] = tested on: mitochondrial electron transport chain; test: ETC inhibition parameter from MITOsym simulation of OCR data, translated to DILIsym; details: calculated from 24 h HepG2 OCR data and measured intracellular concentrations; lower = higher risk
Excerpt: The parameters calculated in this manner were then translated to DILIsym parameters using a conversion factor based on the relative activity of rotenone in the in vitro vs. in vivo environment (7).

RNS/ROS formation = test: RNS/ROS production parameter from DILIsym simulation of ROS data; details: calculated from 24 h HepG2 ROS data; higher = higher risk
Protocol: To define the DILIsym parameter values for lixivaptan- and WAY-138451-mediated oxidative stress, the 24 h in vitro data were simulated within DILIsym (Fig. 5). The intracellular concentration of each compound was measured by LC/MS/MS analysis. For lixivaptan, the measured intracellular concentration at each dose was used to parameterize the model. For WAY-138451, however, the LC/MS/MS data was inconsistent at low doses due to lower limit of detection issues. Thus, the mean measured cell-to-nominal-media ratio (0.672) was used to estimate intracellular concentrations at each dose. Reproduction of lixivaptan- and WAY-138451-mediated induction of oxidative stress defined the relationship between liver compound concentration and ROS formation with the reactive nitrogen/oxygen species (RNS/ROS) production rate constants listed in Table 2. […]
To define the DILIsym parameter values for lixivaptan- and WAY-138451-mediated oxidative stress, the 24 hour in vitro data were simulated within DILIsym (Figure B12). The intracellular concentration of each compound was measured by LC/MS/MS analysis. For lixivaptan, the measured intracellular concentration at each dose was used to parameterize the model. […] Thus, the mean measured cell-to-nominal-media ratio (0.672) was used to estimate intracellular concentrations at each dose. […]

T1 sequence (O95342 whole entry): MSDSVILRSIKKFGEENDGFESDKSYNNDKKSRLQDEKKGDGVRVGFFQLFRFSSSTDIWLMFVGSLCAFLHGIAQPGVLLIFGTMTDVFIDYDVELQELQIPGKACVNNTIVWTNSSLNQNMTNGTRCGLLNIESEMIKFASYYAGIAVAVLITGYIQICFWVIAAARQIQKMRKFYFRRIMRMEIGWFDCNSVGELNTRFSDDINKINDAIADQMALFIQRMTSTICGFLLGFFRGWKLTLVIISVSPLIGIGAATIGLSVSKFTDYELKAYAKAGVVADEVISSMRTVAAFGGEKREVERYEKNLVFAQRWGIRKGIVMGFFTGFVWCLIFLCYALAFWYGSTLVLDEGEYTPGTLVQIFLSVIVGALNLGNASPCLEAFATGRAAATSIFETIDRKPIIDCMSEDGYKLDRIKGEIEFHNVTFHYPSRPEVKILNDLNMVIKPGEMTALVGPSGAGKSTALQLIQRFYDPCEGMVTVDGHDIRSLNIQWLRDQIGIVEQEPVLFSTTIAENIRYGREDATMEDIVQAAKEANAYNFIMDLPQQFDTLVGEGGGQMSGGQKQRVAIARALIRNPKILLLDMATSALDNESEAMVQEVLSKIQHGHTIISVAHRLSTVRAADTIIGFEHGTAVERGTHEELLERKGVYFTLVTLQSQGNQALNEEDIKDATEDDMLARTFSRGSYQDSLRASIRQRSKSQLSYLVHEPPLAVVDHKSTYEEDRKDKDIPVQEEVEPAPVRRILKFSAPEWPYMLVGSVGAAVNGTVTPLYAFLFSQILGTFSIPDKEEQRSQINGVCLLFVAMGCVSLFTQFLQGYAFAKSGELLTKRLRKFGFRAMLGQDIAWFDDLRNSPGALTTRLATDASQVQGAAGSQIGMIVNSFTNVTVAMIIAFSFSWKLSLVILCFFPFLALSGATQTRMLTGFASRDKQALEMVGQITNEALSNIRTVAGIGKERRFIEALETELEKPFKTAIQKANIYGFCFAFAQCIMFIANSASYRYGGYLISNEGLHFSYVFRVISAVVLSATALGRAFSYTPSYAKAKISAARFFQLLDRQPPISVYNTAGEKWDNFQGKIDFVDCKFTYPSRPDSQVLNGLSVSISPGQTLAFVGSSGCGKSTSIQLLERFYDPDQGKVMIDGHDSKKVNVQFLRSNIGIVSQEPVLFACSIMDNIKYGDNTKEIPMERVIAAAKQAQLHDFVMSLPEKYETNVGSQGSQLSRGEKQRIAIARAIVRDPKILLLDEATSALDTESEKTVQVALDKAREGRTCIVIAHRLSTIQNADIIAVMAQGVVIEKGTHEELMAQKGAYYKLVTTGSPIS

Kp at 0.5 µM ([2]; dose 0.5 µM): 23.2
Kp at 1 µM ([2]; dose 1 µM): 14.3
Kp at 5 µM ([2]; dose 5 µM): 8.02
Kp at 10 µM ([2]; dose 10 µM): 6.35
Kp at 25 µM ([2]; dose 25 µM): 4.52
Kp at 40 µM ([2]; dose 40 µM): 4.62
CIntracellular Fraction (HepG2 cells [3]; dose 0.1 µM): 0 µM
CHepatocyte (HepG2 cells [3]; dose 0.1 µM): 0 µM
CIntracellular Fraction (HepG2 cells [3]; dose 0.5 µM): 0.00582 µM
CHepatocyte (HepG2 cells [3]; dose 0.5 µM): 11.61 µM
CIntracellular Fraction (HepG2 cells [3]; dose 1 µM): 0.00738 µM
CHepatocyte (HepG2 cells [3]; dose 1 µM): 14.34 µM
CIntracellular Fraction (HepG2 cells [3]; dose 5 µM): 0.0193 µM
CHepatocyte (HepG2 cells [3]; dose 5 µM): 40.10 µM
CIntracellular Fraction (HepG2 cells [3]; dose 10 µM): 0.0307 µM
CHepatocyte (HepG2 cells [3]; dose 10 µM): 63.51 µM
CIntracellular Fraction (HepG2 cells [3]; dose 25 µM): 0.0525 µM
CHepatocyte (HepG2 cells [3]; dose 25 µM): 112.99 µM
CIntracellular Fraction (HepG2 cells [3]; dose 40 µM): 0.0823 µM
CHepatocyte (HepG2 cells [3]; dose 40 µM): 184.62 µM
SMILES: Cc1ccc(F)cc1C(=O)Nc1ccc(C(=O)N2Cc3cccn3Cc3ccccc32)c(Cl)c1 [Lixivaptan, lixivaptan]
IC50 (human BSEP; read-out: BSEP inhibition constant (IC50)): 15 µM
inhibition of BSEP-mediated probe substrate accumulation (human BSEP; vesicular transport inhibition assay): inhibited
effect on HepG2 oxygen consumption rate (mitochondrial respiration) (HepG2 cells [1]): reduce the HepG2 oxygen consumption rate (OCR) in a dose-dependent manner
plasma fraction unbound ([4]; human): less than 1%
blood:plasma ratio [4]: 0.6
Coefficient for ETC inhibition (DILIsym parameter) [5]: 535 µM
RNS/ROS production rate constant (DILIsym parameter) (RNS/ROS formation): 0.151 M⁻¹ s⁻¹
